# Patent US20240043797A1, “METHOD FOR MASS PRODUCTION OF HIGHLY PURE, STEM CELL-DERIVED EXTRACELLULAR VESICLE BY USING PEPTIDE” (INDUSTRY-ACADEMIC COOPERATION FOUNDATION, CHOSUN UNIVERSITY, priority 2020, published 2024)
# Ends that are not written are not given here. Peptide text beside a SMILES is read from it.
# Tests used:
# Assay type in all cases: cell-based
# [1] = tested on: mesenchymal stem cells; assay: Inhibitor assay: EV production after pretreatment with BAPTA-AM or ALLM; settings: TS-eEV production; cells pretreated with 50 μM BAPTA-AM 1 hour or 10 μM ALLM 18 hours
# Procedure: The cells were pretreated with 50 μM BAPTA-AM (calcium-selective chelator) for 1 hour and with 10 μM ALLM (calpain inhibitor) for 18 hours. Comparison was made of EV production outputs among the method used, and the results are shown in FIGS. 14a and 14b and Table 15.
# [2] = Viability of umbilical cord MSCs against eMTD peptide, absorbance analysis (ez-cytox, 450 nm; 'MTT assay')
# Procedure: Mesenchymal stem cells derived from the umbilical cord (Wharton's jelly-derived MSCs, WJ-MSCs) were assayed for viability by treatment with the eMTD peptide at predetermined concentrations for predetermined periods of time. Tests were conducted with predetermined concentrations of the eMTD peptide. In this regard, umbilical cord-derived mesenchymal stem cells were seeded at a density of 2×10^4 cells/well into 24-well plates (30024, SPL). After 24 hours of incubation, the eMTD peptide in a sucrose buffer was applied at a final concentration of 0, 0.5, 1, 3, 5, 10, or 20 μM to the cells. The sucrose buffer contained glucose, sucrose, and 3-(N-morpholino)propanesulfonic acid [MOPS] at the respective concentrations shown in Table 2. After 15 minutes, the cells were incubated with ez-cytox (EZ-3000, DOGEN) for 30 to 60 minutes. Then, absorbance was read at 450 nm using a Bio-RAD x-Mark™ spectrophotometer (Bio-Rad Laboratories, USA). In addition, treatment with the eMTD peptide was conducted over various times. In this regard, umbilical cord-derived mesenchymal stem cells were seeded at a density of 2×10^4 cells/well into 24-well plates and incubated for 24 hours. Thereafter, the cells were treated with 1 μM of the eMTD peptide in the sucrose buffer for various periods of time (0, 5, 10, 15, 20, 25, or 30 minutes). After 15 minutes of treatment, the cells were incubated for 30 to 60 minutes with ez-cytox (EZ-3000, DOGEN). Absorbance was read at 450 nm using the Bio-RAD x-Mark™ spectrophotometer (Bio-Rad Laboratories, USA).
# [3] = Viability of umbilical cord MSCs against eMTD peptide, cell counting with trypan blue (TB assay)
# Procedure: To measure the number of cells, umbilical cord-derived mesenchymal stem cells were seeded at a density of 2.5×10^4 cells/well into 12-well plates (30012, SPL) and incubated for 24 hours. The eMTD peptide in the sucrose buffer of Table 2 was applied at a final concentration of 0, 0.5, 1.0, 3.0, 5.0, 10.0, or 20.0 μM to the cells. After 15 minutes, the cells were counted using a trypan blue solution. Separately, umbilical cord-derived mesenchymal stem cells were seeded at a density of 2.5×10^4 cells/well into 12-well plates (30012, SPL) and incubated for 24 hours. The cells were treated with the eMTD peptide in the sucrose buffer of Table 2 for various periods of time (0, 5, 10, 15, 20, 25, and 30 minutes). After each period, the cells were counted using a trypan blue solution, and the results are depicted in FIG. 2 and summarized in Tables 5 and 6.
molecule,measurement,setting,value
CSCC[C@@H](C=O)NC(=O)[C@H](CC(C)C)NC(=O)[C@H](CC(C)C)NC(C)=O [ALLM] (Ac-Leu-Leu-Met-aldehyde),EV production (particle number/cell),[1],8.25 × 10^3 ± 9.96 × 10^2 particle number/cell
KLNFRQKLLNLISKLFCSGT [eMTD],"viability at 5 min, 1 μM","[2]; MTT assay, 1 μM eMTD, time 5 min, read-out: Cell viability (%)",52.7%
same,"viability at 10 min, 1 μM","[2]; MTT assay, 1 μM eMTD, time 10 min, read-out: Cell viability (%)",41.8%
same,"viability at 15 min, 1 μM","[2]; MTT assay, 1 μM eMTD, time 15 min, read-out: Cell viability (%)",37%
same,"viability at 20 min, 1 μM","[2]; MTT assay, 1 μM eMTD, time 20 min, read-out: Cell viability (%)",29.4%
same,"viability at 25 min, 1 μM","[2]; MTT assay, 1 μM eMTD, time 25 min, read-out: Cell viability (%)",18.5%
same,"viability at 30 min, 1 μM","[2]; MTT assay, 1 μM eMTD, time 30 min, read-out: Cell viability (%)",17.8%
same,"viability at 15 minutes, 0.5 μM","[2]; MTT assay, eMTD 0.5 μM, 15 minutes, read-out: Cell viability (%)",53.9%
same,"viability at 15 minutes, 1 μM","[2]; MTT assay, eMTD 1.0 μM, 15 minutes, read-out: Cell viability (%)",57.4%
same,"viability at 15 minutes, 3 μM","[2]; MTT assay, eMTD 3.0 μM, 15 minutes, read-out: Cell viability (%)",13.6%
same,"viability at 15 minutes, 5 μM","[2]; MTT assay, eMTD 5.0 μM, 15 minutes, read-out: Cell viability (%)",5.8%
same,"viability at 15 minutes, 10 μM","[2]; MTT assay, eMTD 10.0 μM, 15 minutes, read-out: Cell viability (%)",2.9%
same,"viability at 15 minutes, 20 μM","[2]; MTT assay, eMTD 20.0 μM, 15 minutes, read-out: Cell viability (%)",4.1%
same,"viability at 15 minutes, 1 μM",[2]; cell viability,~50%
same,"viability at 15 minutes, 10 μM",[3],0%
same,"viability at 15 minutes, 0.5 μM","[3]; umbilical cord-derived mesenchymal stem cells, TB assay, eMTD 0.5 μM, 15 minutes",66.7%
same,"viability at 15 minutes, 1 μM","[3]; umbilical cord-derived mesenchymal stem cells, TB assay, eMTD 1.0 μM, 15 minutes",66.3%
same,"viability at 15 minutes, 3 μM","[3]; umbilical cord-derived mesenchymal stem cells, TB assay, eMTD 3.0 μM, 15 minutes",21.9%
same,"viability at 15 minutes, 5 μM","[3]; umbilical cord-derived mesenchymal stem cells, TB assay, eMTD 5.0 μM, 15 minutes",11.2%
same,"viability at 15 minutes, 20 μM","[3]; umbilical cord-derived mesenchymal stem cells, TB assay, eMTD 20.0 μM, 15 minutes",2.1%
same,viability at 5 min,"[3]; umbilical cord-derived mesenchymal stem cells, TB assay, time 5 min",40%
same,viability at 10 min,"[3]; umbilical cord-derived mesenchymal stem cells, TB assay, time 10 min",29.7%
same,viability at 15 min,"[3]; umbilical cord-derived mesenchymal stem cells, TB assay, time 15 min",38.5%
same,viability at 20 min,"[3]; umbilical cord-derived mesenchymal stem cells, TB assay, time 20 min",35.9%
same,viability at 25 min,"[3]; umbilical cord-derived mesenchymal stem cells, TB assay, time 25 min",14.6%
same,viability at 30 min,"[3]; umbilical cord-derived mesenchymal stem cells, TB assay, time 30 min",15.6%
CC(=O)OCOC(=O)CN(CC(=O)OCOC(C)=O)c1ccccc1OCCOc1ccccc1N(CC(=O)OCOC(C)=O)CC(=O)OCOC(C)=O [BAPTA-AM],EV production (particle number/cell),[1],7.34 × 10^3 ± 9.08 × 10^2 particle number/cell
